Tested on: murine B16 melanoma
Assay: Antitumor effect in murine B16 melanoma model, tumor size and tumor weight (Example 2)
Type: in vivo, C57BL/6 mice
Protocol: As per aseptic tissue culture procedures, one vial of B16 melanoma cells (supplied by Cell Culture Center of CAMS) was thawed and centrifuged at 1000 rpm, 20-25° C. for 5 minutes. The cell pellets were suspended in 0.1-0.5 mL normal saline (NS) and subcutaneously injected into the right axilla of each mouse (approximately 1×10^6 cells/mouse). When the tumor diameter was 1 cm approximately (measured by vernier caliper), the animals were euthanized with CO2 asphyxiation and the tumor was excised. Tumor cells were suspended in normal saline as previously described and the cell adaptation cycle was repeated once.
On Day 0, 1×10^6 B16 cells in a volume of 0.1 mL normal saline were subcutaneously injected into the right axillary area of the mouse. The day of tumor inoculation was defined as Day 0.
Dosing was initiated on Day 1.
Observations were recorded daily for mortality and moribundity. […] The tumors were excised, separated, and weighed.
Tumor volume was calculated using the following formula: Tumor Volume=Length×Width×Width/2 Tumor volume inhibition rate (IR) was calculated according to the formula: IR(TV)=(TVvehicle−TVdrug treated)/TVvehicle×100% TV is the tumor volume on the day of measurement.
The antitumor effect of the test article was also evaluated by tumor weight. The tumor weight of each mouse was recorded after euthanasia, and the inhibition rate of tumor weight was calculated according to the formula: IR(TW)=(Tumor weightvehicle−Tumor weightdrug treated)/Tumor weightvehicle×100%

[1] = Day 9, SCV-07 0.01 mg/kg/day sc
[2] = Day 9, mouse F1, SCV-07 0.1 mg/kg sc
[3] = Day 9, mouse F1, SCV-07 5.0 mg/kg sc
[4] = Day 9, mouse F2, SCV-07 0.01 mg/kg sc
[5] = Day 9, mouse F2, SCV-07 0.1 mg/kg sc
[6] = Day 9, mouse F2, SCV-07 1.0 mg/kg sc
[7] = Day 9, mouse F2, SCV-07 5.0 mg/kg sc
[8] = Day 9, mouse F3, SCV-07 0.1 mg/kg sc
[9] = Day 9, mouse F3, SCV-07 1.0 mg/kg sc
[10] = Day 9, mouse F4, SCV-07 0.01 mg/kg sc
[11] = Day 9, mouse F4, SCV-07 0.1 mg/kg sc
[12] = Day 9, mouse F4, SCV-07 1.0 mg/kg sc
[13] = Day 9, mouse F4, SCV-07 5.0 mg/kg sc
[14] = Day 9, mouse F5, SCV-07 0.01 mg/kg sc
[15] = Day 9, mouse F5, SCV-07 0.1 mg/kg sc
[16] = Day 9, mouse F5, SCV-07 1.0 mg/kg sc
[17] = Day 9, mouse F5, SCV-07 5.0 mg/kg sc
[18] = Day 9, mouse M1, SCV-07 0.01 mg/kg sc
[19] = Day 9, mouse M1, SCV-07 0.1 mg/kg sc
[20] = Day 9, mouse M1, SCV-07 1.0 mg/kg sc
[21] = Day 9, mouse M1, SCV-07 5.0 mg/kg sc
[22] = Day 9, mouse M2, SCV-07 0.01 mg/kg sc
[23] = Day 9, mouse M2, SCV-07 1.0 mg/kg sc
[24] = Day 9, mouse M3, SCV-07 0.01 mg/kg sc
[25] = Day 9, mouse M3, SCV-07 1.0 mg/kg sc
[26] = Day 9, mouse M3, SCV-07 5.0 mg/kg sc
[27] = Day 9, mouse M4, SCV-07 0.1 mg/kg sc
[28] = Day 9, mouse M4, SCV-07 1.0 mg/kg sc
[29] = Day 9, mouse M4, SCV-07 5.0 mg/kg sc
[30] = Day 9, mouse M5, SCV-07 0.01 mg/kg sc
[31] = Day 9, mouse M5, SCV-07 0.1 mg/kg sc
[32] = Day 12, SCV-07 0.01 mg/kg/day sc
[33] = Day 12, SCV-07 0.1 mg/kg/day sc
[34] = Day 12, SCV-07 1.0 mg/kg/day sc
[35] = Day 12, SCV-07 5.0 mg/kg/day sc
[36] = Day 12, mouse F1, SCV-07 0.01 mg/kg sc
[37] = Day 12, mouse F1, SCV-07 0.1 mg/kg sc
[38] = Day 12, mouse F1, SCV-07 1.0 mg/kg sc
[39] = Day 12, mouse F1, SCV-07 5.0 mg/kg sc
[40] = Day 12, mouse F2, SCV-07 0.01 mg/kg sc
[41] = Day 12, mouse F2, SCV-07 0.1 mg/kg sc
[42] = Day 12, mouse F2, SCV-07 1.0 mg/kg sc

N[C@H](CCC(=O)N[C@@H](Cc1c[nH]c2ccccc12)C(=O)O)C(=O)O [SCV-07, γ-D-glutamyl-L-tryptophan]
Tumor Volume (Mean ± SD) (Day 3, SCV-07 0.01 mg/kg/day sc, not measurable defined as 0): 0 cm^3 | Tumor Volume (Mean ± SD) (Day 3, SCV-07 0.1 mg/kg/day sc, not measurable defined as 0): 0 cm^3 | Tumor Volume (Mean ± SD) (Day 3, SCV-07 1.0 mg/kg/day sc, not measurable defined as 0): 0 cm^3 | Tumor Volume (Mean ± SD) (Day 3, SCV-07 5.0 mg/kg/day sc, not measurable defined as 0): 0 cm^3 | Tumor Volume (Mean ± SD) (Day 6, SCV-07 0.01 mg/kg/day sc, not measurable defined as 0): 0 cm^3 | Tumor Volume (Mean ± SD) (Day 6, SCV-07 0.1 mg/kg/day sc, not measurable defined as 0): 0 cm^3 | Tumor Volume (Mean ± SD) (Day 6, SCV-07 1.0 mg/kg/day sc, not measurable defined as 0): 0 cm^3 | Tumor Volume (Mean ± SD) (Day 6, SCV-07 5.0 mg/kg/day sc, not measurable defined as 0): 0 cm^3 | IR (tumor volume inhibition rate) [1]: −4.3% | Tumor Volume (Mean ± SD) [1]: 0.045 ± 0.042 cm^3 | IR (tumor volume inhibition rate) (Day 9, SCV-07 0.1 mg/kg/day sc): 11.5% | Tumor Volume (Mean ± SD) (Day 9, SCV-07 0.1 mg/kg/day sc): 0.039 ± 0.038 cm^3 | IR (tumor volume inhibition rate) (Day 9, SCV-07 1.0 mg/kg/day sc): 19.7% | Tumor Volume (Mean ± SD) (Day 9, SCV-07 1.0 mg/kg/day sc): 0.035 ± 0.036 cm^3 | IR (tumor volume inhibition rate) (Day 9, SCV-07 5.0 mg/kg/day sc): −11.0% | Tumor Volume (Mean ± SD) (Day 9, SCV-07 5.0 mg/kg/day sc): 0.048 ± 0.036 cm^3 | Tumor measurements L [2]: 0.5 cm | Tumor measurements W [2]: 0.5 cm | Tumor volumes [2]: 0.06 cm^3 | Tumor measurements L [3]: 0.5 cm | Tumor measurements W [3]: 0.5 cm | Tumor volumes [3]: 0.06 cm^3 | Tumor measurements L [4]: 0.5 cm | Tumor measurements W [4]: 0.5 cm | Tumor volumes [4]: 0.06 cm^3 | Tumor measurements L [5]: 0.5 cm | Tumor measurements W [5]: 0.5 cm | Tumor volumes [5]: 0.06 cm^3 | Tumor measurements L [6]: 0.5 cm | Tumor measurements W [6]: 0.5 cm | Tumor volumes [6]: 0.06 cm^3 | Tumor measurements L [7]: 0.5 cm | Tumor measurements W [7]: 0.5 cm | Tumor volumes [7]: 0.06 cm^3 | Tumor measurements L [8]: 0.5 cm | Tumor measurements W [8]: 0.5 cm | Tumor volumes [8]: 0.06 cm^3 | Tumor measurements L [9]: 0.6 cm | Tumor measurements W [9]: 0.6 cm | Tumor volumes [9]: 0.11 cm^3 | Tumor measurements L [10]: 0.5 cm | Tumor measurements W [10]: 0.5 cm | Tumor volumes [10]: 0.06 cm^3 | Tumor measurements L [11]: 0.6 cm | Tumor measurements W [11]: 0.6 cm | Tumor volumes [11]: 0.11 cm^3 | Tumor measurements L [12]: 0.3 cm | Tumor measurements W [12]: 0.3 cm | Tumor volumes [12]: 0.01 cm^3 | Tumor measurements L [13]: 0.6 cm | Tumor measurements W [13]: 0.6 cm | Tumor volumes [13]: 0.11 cm^3 | Tumor measurements L [14]: 0.6 cm | Tumor measurements W [14]: 0.6 cm | Tumor volumes [14]: 0.11 cm^3 | Tumor measurements L [15]: 0 cm | Tumor measurements W [15]: 0 cm | Tumor volumes [15]: 0.00 cm^3 | Tumor measurements L [16]: 0.5 cm | Tumor measurements W [16]: 0.5 cm | Tumor volumes [16]: 0.06 cm^3 | Tumor measurements L [17]: 0.5 cm | Tumor measurements W [17]: 0.5 cm | Tumor volumes [17]: 0.06 cm^3 | Tumor measurements L [18]: 0.6 cm | Tumor measurements W [18]: 0.6 cm | Tumor volumes [18]: 0.11 cm^3 | Tumor measurements L [19]: 0.3 cm | Tumor measurements W [19]: 0.3 cm | Tumor volumes [19]: 0.01 cm^3 | Tumor measurements L [20]: 0.3 cm | Tumor measurements W [20]: 0.3 cm | Tumor volumes [20]: 0.01 cm^3 | Tumor measurements L [21]: 0.5 cm | Tumor measurements W [21]: 0.5 cm | Tumor volumes [21]: 0.06 cm^3 | Tumor measurements L [22]: 0.4 cm | Tumor measurements W [22]: 0.4 cm | Tumor volumes [22]: 0.03 cm^3 | Tumor volumes (Day 9, mouse M2, SCV-07 0.1 mg/kg sc): 0.00 cm^3 | Tumor measurements L [23]: 0.5 cm | Tumor measurements W [23]: 0.5 cm | Tumor volumes [23]: 0.06 cm^3 | Tumor measurements L [24]: 0.4 cm | Tumor measurements W [24]: 0.3 cm | Tumor volumes [24]: 0.02 cm^3 | Tumor volumes (Day 9, mouse M3, SCV-07 0.1 mg/kg sc): 0.00 cm^3 | Tumor measurements L [25]: 0.3 cm | Tumor measurements W [25]: 0.3 cm | Tumor volumes [25]: 0.01 cm^3 | Tumor measurements L [26]: 0.5 cm | Tumor measurements W [26]: 0.5 cm | Tumor volumes [26]: 0.06 cm^3 | Tumor measurements L [27]: 0.3 cm | Tumor measurements W [27]: 0.3 cm | Tumor volumes [27]: 0.01 cm^3 | Tumor measurements L [28]: 0.3 cm | Tumor measurements W [28]: 0.3 cm | Tumor volumes [28]: 0.01 cm^3 | Tumor measurements L [29]: 0.5 cm | Tumor measurements W [29]: 0.5 cm | Tumor volumes [29]: 0.06 cm^3 | Tumor measurements L [30]: 0.5 cm | Tumor measurements W [30]: 0.5 cm | Tumor volumes [30]: 0.06 cm^3 | Tumor measurements L [31]: 0.5 cm | Tumor measurements W [31]: 0.5 cm | Tumor volumes [31]: 0.06 cm^3 | IR (tumor volume inhibition rate) [32]: 51.2% | Tumor Volume (Mean ± SD) [32]: 0.368 ± 0.223 cm^3 | IR (tumor volume inhibition rate) [33]: 37.7% | Tumor Volume (Mean ± SD) [33]: 0.469 ± 0.199 cm^3 | IR (tumor volume inhibition rate) [34]: 61.3% | Tumor Volume (Mean ± SD) [34]: 0.292 ± 0.169 cm^3 | IR (tumor volume inhibition rate) [35]: 54.9% | Tumor Volume (Mean ± SD) [35]: 0.340 ± 0.195 cm^3 | Tumor measurements L [36]: 0.1 cm | Tumor measurements W [36]: 0.1 cm | Tumor volumes [36]: 5E−04 cm^3 | Tumor measurements L [37]: 1.0 cm | Tumor measurements W [37]: 1.0 cm | Tumor volumes [37]: 0.50 cm^3 | Tumor measurements L [38]: 1.0 cm | Tumor measurements W [38]: 0.7 cm | Tumor volumes [38]: 0.25 cm^3 | Tumor measurements L [39]: 1.0 cm | Tumor measurements W [39]: 0.9 cm | Tumor volumes [39]: 0.41 cm^3 | Tumor measurements L [40]: 1.0 cm | Tumor measurements W [40]: 0.7 cm | Tumor volumes [40]: 0.25 cm^3 | Tumor measurements L [41]: 1.0 cm | Tumor measurements W [41]: 1.0 cm | Tumor volumes [41]: 0.50 cm^3 | Tumor measurements L [42]: 0.9 cm | Tumor measurements W [42]: 0.9 cm | Tumor volumes [42]: 0.36 cm^3

— patent US8163702B2, “Treatment of melanoma” (SciClone Pharmaceuticals, Inc., priority 2006, dated 2012)
